{"source": "patent US20060035927A1", "about": "“Calcilytic compounds” (SmithKline Beecham Corporation, priority 1999, published 2006)", "key": {"[1]": {"tested_on": "TF274 cells", "assay": "Osteoblast alkaline phosphatase activity", "assay_type": "cell-based, human", "settings": "compound 0.1, 1 and 10 uM", "experimental": "(§1) cAMP accumulation was measured in both human TF274 osteoblastic cells (derived by immortalization of human bone marrow stromal cells) see James, supra, and primary human osteoblasts derived from explants of trabecular bone as described in Beresford, Biochim. Biophys. Acta, Vol. 801, pp. 58-65 ([…]). cAMP levels in cell samples were measured using a non-radioactive protocol (Amersham kit). Alkaline phosphatase activity was determined using the standard colorimetric method as described previously in Gowen, Arth. Rheum., Vol. 31, pp. 1500-1507 (1988). N-[(2R-Hydroxy-3-[(3-chloro-2-cyano)phenoxy-propyl]-1,1-dimethyl-2-(2-naphthyl)ethyl amine hydrochloride was tested at 0.1, 1 and 10 uM. PTH 40 ng/ml was used as a positive control."}, "[2]": {"tested_on": "human osteoclasts", "assay": "Human osteoclast-mediated bone resorption assay", "assay_type": "cell-based", "settings": "concentrations up to 3 uM, 24 hours", "experimental": "The isolation of disaggregated human osteoclasts from fresh osteoclastoma tissue and the in vitro human osteoclast resorption assay were performed according to James, J. Bone Min. Res., Vol. 11, pp. 1453-1460. Briefly, human osteoclasts were seeded onto bovine cortical bone particles with compound or vehicle for 24 hours at 37° C. The culture media were then removed and the levels of the carboxy-terminal peptide of the α1 chain of human type I collagen were quantified as a biochemical readout of resorption, using a competitive binding enzyme linked immunosorbant assay (ELISA) (19) (Osteometer A/S, Rodovre, Denmark). The results are expressed as percent inhibition of resorption compared to supernatants derived from osteoclasts cultured in vehicle without inhibitor. IC50 values are determined from the resultant dose response curves."}, "[3]": {"tested_on": "fetal rat long bone", "assay": "Fetal rat long bone resorption assay", "assay_type": "cell-based", "settings": "45Ca release, PTH-stimulated, 48 hours; read-out: IC50, inhibition of resorption in fetal rat long bone assay", "experimental": "The assay was performed essentially as in Votta, Bone, Vol. 15, pp. 533-538, (1994). Timed-pregnant Sprague-Dawley rats (Taconic Farms, Germantown, N.Y.) were injected subcutaneously with 200 microcuries of ^45CaCl2 on day 18 of gestation, housed overnight, then anesthetized with Innovar-Vet (Pittman-Moore, Mundelein, Ill.) and sacrificed by cervical dislocation. The fetuses were removed aseptically and the radii and ulnae were dissected free of surrounding soft tissue and cartilagenous ends. The bone rudiments (n=4) were subsequently cultured for 18-24 hours in BGJb medium (Sigma, St. Louis, Mo.) containing 1 mg/ml BSA, then transferred to fresh medium and cultured for an additional 48 hours in the absence or presence of PTH (human parathyroid hormone, Bachem, Torrence, Calif.) and the desired inhibitor. ^45 Ca released into the medium and the residual ^45Ca in the bones (following solubilization in 5% TCA for 1 hour at room temperature) were quantitated by liquid scintillation spectrometry. Data are expressed as the percent ^45Ca released from treated bones as compared with corresponding control bones. Statistical differences were assessed by a one way analysis of variance (ANOVA). IC-50 values were based on data from two independent experiments."}, "[4]": {"assay": "Ovariectomized rat Study 1: circulating compound levels (LC/MS/MS)", "assay_type": "in vivo", "settings": "Study 1, plasma, after oral administration", "excerpt": "(§2) Seven month old virgin Sprague Dawley female rats were subjected to bilateral ovariectomy or sham surgery and the animals then held for a period of three months to allow the development of osteopenia. At that time a single sham group (n=10) and three groups of ovariectomized (ovx) animals (n=10-14) were assigned. The ovx groups were selected such that there was no significant difference in bone mineral density (“BMD”) of the lumbar spine, proximal tibia or distal femur between groups. Groups consisted of sham and ovx controls treated with dose vehicle (20% aqueous encapsin) and ovx groups treated with either N-[(2R-Hydroxy-3-[(3-chloro-2-cyano)phenoxy-propyl]-1,1-dimethyl-2-(2-naphthyl)ethyl amine hydrochloride (“calcilytic administered”) ([…] body weight daily p.o.) or rat PTH 1-34 (5 ug/kg body weight daily s.c.).\n(§3) Timed plasma samples were collected relative to administration of compound or PTH. PTH 1-34 was measured by RIA (Nichols Institute Diagnostics, San Juan Capistrano, Calif.). The concentrations of compound in the plasma were quantified by LC/MS/MS (limit of detection 10 ng/ml)."}, "[5]": {"tested_on": "osteopenic ovx rats", "assay": "Ovariectomized rat Study 1: bone mineral density by DXA", "assay_type": "in vivo", "settings": "Study 1, ovx rats, 100 mmol/kg body weight daily p.o., eight weeks of dosing", "excerpt": "as §2\n(§4) During the study blood samples were drawn for determination of circulating PTH and osteocalcin. BMD was determined by DXA (QDR4500 Hologic, Waltham, Mass.) prior to treatment and at weeks 4 and 8. At term tibiae were removed for histological analysis. All animals received tetracycline 10 and 3 days prior to the start of dosing and calcein (10 mg/kg) 10 and 3 days prior to sacrifice."}, "[6]": {"tested_on": "plasma PTH", "assay": "Ovariectomized rat Study 1: circulating PTH levels (RIA)", "assay_type": "in vivo", "excerpt": "as §2, §4, §3"}, "[7]": {"tested_on": "human TF274 osteoblastic cells", "assay": "Osteoblast cAMP production, TF274 cells", "assay_type": "cell-based", "settings": "compound 0.1, 1 and 10 uM", "experimental": "as §1"}}, "note": "Counter-ions that a name gives are not always drawn."}
{"molecule": "CC(C)(Cc1ccc2ccccc2c1)NC[C@@H](O)COc1cccc(Cl)c1C#N", "note": "[N-[(2R-Hydroxy-3-[(3-chloro-2-cyano)phenoxy-propyl]-1,1-dimethyl-2-(2-naphthyl)ethylamine hydrochloride]", "values": [{"measurement": "alkaline phosphatase activity", "setting": "[1]", "result": "did not result in any change"}, {"measurement": "PTH-induced alkaline phosphatase", "setting": "[1]; PTH 40 ng/ml", "result": "nor was PTH-induced alkaline phosphatase affected"}, {"measurement": "effect on human osteoclast mediated bone resorption", "setting": "[2]", "result": "no effect"}, {"measurement": "IC50", "setting": "[3]", "result": 11.3, "unit": "µM"}, {"measurement": "sustained exposure to compound (circulating levels)", "setting": "[4]", "result": "elevated for up to eight hours"}, {"measurement": "bone mass (BMD; lumbar spine, distal femur, proximal tibia)", "setting": "[5]", "result": "unaffected"}, {"measurement": "plasma PTH levels at four hours after administration", "setting": "[6]; Study 1, after calcilytic 100 mmol/kg p.o.", "result": "remained high"}, {"measurement": "plasma PTH levels", "setting": "[6]; Study 1, end of experiment, after calcilytic 100 mmol/kg p.o.", "result": "> 100", "unit": "pg/mL"}, {"measurement": "plasma PTH levels after 24 hours", "setting": "[6]; Study 1, immediately prior to next dose of calcilytic", "result": "back to baseline"}, {"measurement": "PTH-induced cAMP levels", "setting": "[7]; PTH 40 ng/ml", "result": "no effect"}, {"measurement": "cAMP levels (basal)", "setting": "[7]; PTH 40 ng/ml positive control", "result": "no effect"}]}
